Assay results taken from the supplement of paper PMC10307832.

Columns and labels:
Assay in all cases: relative viability (nuclei count vs DMSO), 5 days (fraction); higher = more cells survive
[1] = compound: CC(C)C[C@H](NC(=O)[C@H](Cc1ccccc1)NC(=O)c1cnccn1)B(O)O [Bortezomib] + O=C(c1cc(Cc2n[nH]c(=O)c3ccccc23)ccc1F)N1CCN(C(=O)C2CC2)CC1 [Olaparib] (partner 8 µM)
Summary of the method: (§1)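 Lung cancer cell lines, seeded in 1536-well plates, were treated the following day by pin tool with a single drug or with five library-drug doses (not always all listed) in √10 steps on top of a fixed anchor-drug dose. Cells were fixed and nuclei stained in one step after 5 days, and nuclei were counted. Relative viability is the nuclei count for treated wells divided by that for vehicle wells, reported as medians of duplicate plates.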

[2] = compound: CC(C)C[C@H](NC(=O)[C@H](Cc1ccccc1)NC(=O)c1cnccn1)B(O)O [Bortezomib] + Cc1cc(Nc2cc(N3CCN(C)CC3)nc(Sc3ccc(NC(=O)C4CC4)cc3)n2)n[nH]1 [Tozasertib] (partner 0.1 µM)
Summary of the method: as §1

[3] = compound: COC1=CC(c2cc3ccccc3[nH]2)=N/C1=C\c1[nH]c(C)cc1C [Obatoclax] + Cc1nc(Nc2ncc(C(=O)Nc3c(C)cccc3Cl)s2)cc(N2CCN(CCO)CC2)n1 [Dasatinib] (partner 0.075 µM)
Summary of the method: as §1

[4] = compound: COC1=CC(c2cc3ccccc3[nH]2)=N/C1=C\c1[nH]c(C)cc1C [Obatoclax] + Cc1nc(NC(=O)N2CCC[C@H]2C(N)=O)sc1-c1ccnc(C(C)(C)C(F)(F)F)c1 [Alpelisib] (partner 2 µM)
Summary of the method: as §1

Cell Line | relative viability ([1]; first compound 0.0002 µM) | relative viability ([1]; first compound 0.000632 µM) | relative viability ([1]; first compound 0.002 µM) | relative viability ([1]; first compound 0.006325 µM) | relative viability ([1]; first compound 0.02 µM) | relative viability ([2]; first compound 0.0002 µM) | relative viability ([2]; first compound 0.000632 µM) | relative viability ([2]; first compound 0.002 µM) | relative viability ([2]; first compound 0.006325 µM) | relative viability ([2]; first compound 0.02 µM) | relative viability ([3]; first compound 0.01 µM) | relative viability ([3]; first compound 0.03162 µM) | relative viability ([3]; first compound 0.1 µM) | relative viability ([3]; first compound 0.3162 µM) | relative viability ([3]; first compound 1 µM) | relative viability ([4]; first compound 0.01 µM) | relative viability ([4]; first compound 0.03162 µM) | relative viability ([4]; first compound 0.1 µM) | relative viability ([4]; first compound 0.3162 µM) | relative viability ([4]; first compound 1 µM)
NCI-H596 | 0.723 | 0.709 | 0.445 | 0.186 | 0.187 | 0.82 | 0.949 | 0.753 | 0.188 | 0.155 | 0.618 | 0.475 | 0.464 | 0.502 | 0.394 | 0.481 | 0.437 | 0.469 | 0.402 | 0.401
NCI-H647 | 0.518 | 0.374 | 0.148 | 0.0277 | 0.0271 | 0.297 | 0.19 | 0.203 | 0.0209 | 0.0248 | 0.258 | 0.164 | 0.149 | 0.0862 | 0.0719 | 1.09 | 1.3 | 0.875 | 0.265 | 0.148
NCI-H661 | 0.745 | 0.69 | 0.78 | 0.376 | 0.213 | 0.367 | 0.355 | 0.341 | 0.287 | 0.201 | 0.875 | 0.846 | 0.427 | 0.762 | 0.4 | 0.643 | 0.507 | 0.261 | 0.458 | 0.84
NCI-H727 | 0.673 | 0.968 | 0.681 | 0.803 | 0.176 | 0.688 | 0.775 | 0.606 | 0.394 | 0.162 | 0.438 | 0.287 | 0.512 | 0.39 | 0.348 | 0.575 | 0.578 | 0.405 | 0.475 | 0.245
NCI-H838 | 0.739 | 0.789 | 0.792 | 0.124 | 0.0906 | 0.251 | 0.298 | 0.327 | 0.109 | 0.123 | 0.298 | 0.25 | – | 0.277 | 0.226 | 0.968 | 0.992 | 0.914 | 0.822 | 0.617
NCI-H1355 | 0.733 | 0.725 | 0.666 | 0.118 | 0.107 | 0.503 | 0.591 | 0.584 | 0.131 | 0.122 | 0.836 | 0.675 | 0.538 | 0.68 | 0.535 | 0.866 | 0.905 | 0.795 | 0.681 | 0.658
NCI-H1395 | 0.474 | 0.45 | 0.361 | 0.336 | 0.328 | 0.793 | 0.692 | 0.576 | 0.288 | 0.274 | 0.417 | 0.416 | 0.399 | 0.412 | 0.432 | 1.14 | 1.2 | 0.982 | 0.954 | 0.474
NCI-H1437 | 0.586 | 0.627 | 0.553 | 0.199 | 0.154 | 0.405 | 0.405 | 0.403 | 0.114 | 0.118 | 0.559 | 0.295 | 0.384 | 0.355 | 0.445 | 0.97 | 0.922 | 0.962 | 1.01 | 0.88
